Laboratory results from PubChem BioAssay (NCI).
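Tested at 5 concentrations; 48 h exposure; 96-well plates; endpoints linearly interpolated, else capped at highest concentration. TGI denotes the concentration required for complete inhibition of growth.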

What was measured:
Test in all cases: DTP human tumour cell line panel, 48 h
786-0 renal = test system: 786-0 renal
A498 renal = test system: A498 renal
A549 NSCLC = test system: A549 NSCLC
ACHN renal = test system: ACHN renal
CAKI-1 renal = test system: CAKI-1 renal
CCRF-CEM leukemia = test system: CCRF-CEM leukemia
COLO 205 colon = test system: COLO 205 colon
DU-145 prostate = test system: DU-145 prostate
EKVX NSCLC = test system: EKVX NSCLC
HCC-2998 colon = test system: HCC-2998 colon
HCT-116 colon = test system: HCT-116 colon
HCT-15 colon = test system: HCT-15 colon
HL-60(TB) leukemia = test system: HL-60(TB) leukemia
HOP-62 NSCLC = test system: HOP-62 NSCLC
HOP-92 NSCLC = test system: HOP-92 NSCLC
HT29 colon = test system: HT29 colon
K-562 leukemia = test system: K-562 leukemia
KM12 colon = test system: KM12 colon
LOX IMVI melanoma = test system: LOX IMVI melanoma
M14 melanoma = test system: M14 melanoma
MCF7 breast = test system: MCF7 breast
MDA-MB-231 breast = test system: MDA-MB-231 breast
MDA-MB-435 = test system: MDA-MB-435
MDA-N = test system: MDA-N
MOLT-4 leukemia = test system: MOLT-4 leukemia
NCI-H226 lung = test system: NCI-H226 lung
NCI-H23 lung = test system: NCI-H23 lung
NCI-H460 lung = test system: NCI-H460 lung
NCI-H522 lung = test system: NCI-H522 lung
NCI/ADR-RES ovarian = test system: NCI/ADR-RES ovarian
OVCAR-3 ovarian = test system: OVCAR-3 ovarian
OVCAR-4 ovarian = test system: OVCAR-4 ovarian
OVCAR-5 ovarian = test system: OVCAR-5 ovarian
OVCAR-8 ovarian = test system: OVCAR-8 ovarian
PC-3 prostate = test system: PC-3 prostate
RPMI-8226 leukemia = test system: RPMI-8226 leukemia
RXF 393 renal = test system: RXF 393 renal
SF-268 CNS = test system: SF-268 CNS
SF-295 CNS = test system: SF-295 CNS
SF-539 CNS = test system: SF-539 CNS
SK-MEL-2 melanoma = test system: SK-MEL-2 melanoma
SK-MEL-28 melanoma = test system: SK-MEL-28 melanoma
SK-MEL-5 melanoma = test system: SK-MEL-5 melanoma
SK-OV-3 ovarian = test system: SK-OV-3 ovarian
SN12C renal = test system: SN12C renal
SNB-19 CNS = test system: SNB-19 CNS
SW-620 colon = test system: SW-620 colon
T-47D breast = test system: T-47D breast
TK-10 renal = test system: TK-10 renal
U251 CNS = test system: U251 CNS
UACC-257 melanoma = test system: UACC-257 melanoma
UACC-62 melanoma = test system: UACC-62 melanoma
UO-31 renal = test system: UO-31 renal
IGROV1 ovarian = test system: IGROV1 ovarian
MALME-3M melanoma = test system: MALME-3M melanoma
SNB-75 CNS = test system: SNB-75 CNS
SR leukemia = test system: SR leukemia

Measured: TGI

COC(=O)c1c(C(=O)OC)c2ccc(-c3ccc(Cl)cc3)nn2c1C(=O)c1ccc([N+](=O)[O-])cc1
55.3 µM: RPMI-8226 leukemia
> 100 µM: 786-0 renal | A498 renal | A549 NSCLC | ACHN renal | CCRF-CEM leukemia | COLO 205 colon | DU-145 prostate | HCC-2998 colon | HCT-116 colon | HCT-15 colon | HL-60(TB) leukemia | HOP-62 NSCLC | HT29 colon | K-562 leukemia | KM12 colon | LOX IMVI melanoma | M14 melanoma | MCF7 breast | MDA-MB-231 breast | MDA-MB-435 | MDA-N | NCI-H226 lung | NCI-H23 lung | NCI-H460 lung | NCI/ADR-RES ovarian | OVCAR-3 ovarian | OVCAR-4 ovarian | OVCAR-5 ovarian | OVCAR-8 ovarian | PC-3 prostate | SF-268 CNS | SF-295 CNS | SF-539 CNS | SK-MEL-2 melanoma | SK-MEL-28 melanoma | SK-MEL-5 melanoma | SK-OV-3 ovarian | SN12C renal | SNB-19 CNS | SW-620 colon | T-47D breast | U251 CNS | UACC-257 melanoma | UACC-62 melanoma | UO-31 renal
57.9 µM: TK-10 renal
39.5 µM: HOP-92 NSCLC
55.5 µM: RXF 393 renal
84.4 µM: EKVX NSCLC
76.2 µM: CAKI-1 renal
82.6 µM: MOLT-4 leukemia
37.3 µM: NCI-H522 lung

CC1(C)CSCC(C)(C)C(=N/N)/C1=N\N
> 100 µM: 786-0 renal | A498 renal | A549 NSCLC | ACHN renal | CAKI-1 renal | COLO 205 colon | DU-145 prostate | EKVX NSCLC | HCC-2998 colon | HCT-116 colon | HCT-15 colon | HL-60(TB) leukemia | HOP-62 NSCLC | HOP-92 NSCLC | HT29 colon | IGROV1 ovarian | K-562 leukemia | KM12 colon | LOX IMVI melanoma | M14 melanoma | MALME-3M melanoma | MCF7 breast | MDA-MB-435 | MDA-N | NCI-H226 lung | NCI-H23 lung | NCI-H460 lung | NCI-H522 lung | NCI/ADR-RES ovarian | OVCAR-3 ovarian | OVCAR-5 ovarian | OVCAR-8 ovarian | PC-3 prostate | SF-268 CNS | SF-295 CNS | SF-539 CNS | SK-MEL-2 melanoma | SK-MEL-28 melanoma | SK-MEL-5 melanoma | SK-OV-3 ovarian | SN12C renal | SNB-19 CNS | SNB-75 CNS | SR leukemia | SW-620 colon | T-47D breast | TK-10 renal | U251 CNS | UACC-257 melanoma | UACC-62 melanoma
